Values of other authors as cited in US20180256623A1, “COMPOSITIONS AND METHOD FOR REGULATING ADIPOSE TISSUE LIPOLYSIS, INSULIN-RESISTANCE, AND HYPERGLYCEMIA” (University of Virginia Patent Foundation, priority 2015, published 2018).

Biological target: T1, HSL (Homo sapiens, UniProt Q05469)
T1 sequence (Q05469 1-1076): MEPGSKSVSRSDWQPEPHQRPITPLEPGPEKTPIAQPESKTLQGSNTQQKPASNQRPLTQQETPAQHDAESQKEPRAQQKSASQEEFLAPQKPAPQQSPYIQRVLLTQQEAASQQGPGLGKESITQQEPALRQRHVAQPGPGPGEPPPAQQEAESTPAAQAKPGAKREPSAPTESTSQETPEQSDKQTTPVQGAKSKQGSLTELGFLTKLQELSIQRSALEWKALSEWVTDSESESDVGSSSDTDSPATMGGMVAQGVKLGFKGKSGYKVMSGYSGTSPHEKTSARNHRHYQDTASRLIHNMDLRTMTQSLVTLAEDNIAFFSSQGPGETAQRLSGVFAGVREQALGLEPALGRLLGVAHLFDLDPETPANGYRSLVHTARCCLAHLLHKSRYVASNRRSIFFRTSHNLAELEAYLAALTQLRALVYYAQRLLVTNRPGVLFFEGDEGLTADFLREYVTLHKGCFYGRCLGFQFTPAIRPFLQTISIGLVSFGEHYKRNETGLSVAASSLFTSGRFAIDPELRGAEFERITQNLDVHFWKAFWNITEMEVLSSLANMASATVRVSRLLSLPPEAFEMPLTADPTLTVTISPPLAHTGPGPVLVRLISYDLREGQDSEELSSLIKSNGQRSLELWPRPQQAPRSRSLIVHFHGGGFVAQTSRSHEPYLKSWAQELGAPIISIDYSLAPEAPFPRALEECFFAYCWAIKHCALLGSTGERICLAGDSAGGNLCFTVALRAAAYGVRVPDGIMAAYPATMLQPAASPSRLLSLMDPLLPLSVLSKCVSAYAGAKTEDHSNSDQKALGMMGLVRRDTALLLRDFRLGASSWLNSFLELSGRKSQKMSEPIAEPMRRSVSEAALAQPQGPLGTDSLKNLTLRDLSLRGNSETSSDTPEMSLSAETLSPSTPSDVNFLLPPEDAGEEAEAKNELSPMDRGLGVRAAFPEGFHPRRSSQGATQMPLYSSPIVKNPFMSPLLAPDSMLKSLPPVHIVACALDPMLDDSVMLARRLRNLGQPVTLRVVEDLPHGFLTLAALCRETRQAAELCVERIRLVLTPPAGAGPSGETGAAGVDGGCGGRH
Conditions: Table 1, 4-substituted 5-(2H)-isoxazolones; means of three experiments; cited from earlier work

| Compound | IC50 [nM] |
| --- | --- |
| Cc1c(-c2ccccc2)c(=O)on1C(=O)N1CCCCC1 [Compound 19] | 17 |
| Cc1c(C2CCSCC2)c(=O)on1C(=O)N1CCCCC1 [Compound 15] | 55 |

Same assay, conditions: Table 2, acyclic ureas; means of three experiments; Na = not active; cited from earlier work

| Compound | IC50 [nM] |
| --- | --- |
| Cc1c(C(C)C)c(=O)on1C(=O)NC(C)(C)C [Compound 20] | > 1000 |
| Cc1c(C(C)C)c(=O)on1C(=O)Nc1ccccc1 [Compound 21] | > 1000 |

Same assay, conditions: Table 3, cyclic amine-derived ureas; means of three experiments; Na = not active; cited from earlier work

| Compound | IC50 [nM] |
| --- | --- |
| Cc1c(C(C)C)c(=O)on1C(=O)N1CCNCC1 [Compound 46] | > 1000 |
| Cc1c(C(C)C)c(=O)on1C(=O)N1CCc2ccccc21 [Compound 44] | > 1000 |

Same assay, conditions: piperidine derivatives; means of three experiments; Na = not active; cited from earlier work

| Compound | IC50 [nM] |
| --- | --- |
| Cc1nnc(C2CCN(C(=O)n3oc(=O)c(C(C)C)c3C)CC2)o1 [Compound 86] | > 1000 |
| Cc1c(C(C)C)c(=O)on1C(=O)N1CCC(C(=O)N(C)C)CC1 [Compound 84] | > 1000 |
| Cc1c(C(C)C)c(=O)on1C(=O)N1CCC(O)(c2ccccc2)CC1 [Compound 92] | > 1000 |
| Cc1c(C(C)C)c(=O)on1C(=O)N1CCC(C#N)(c2ccccc2)CC1 [Compound 91] | > 1000 |

Test system: 3T3-L1
Conditions: Table 1, 4-substituted 5-(2H)-isoxazolones; means of three experiments; cited from earlier work

| Compound | IC50 [nM] |
| --- | --- |
| Cc1c(CCOc2ccccc2)c(=O)on1C(=O)N1CCCCC1 [Compound 17] | 2 |
| Cc1c(Sc2ccccc2)c(=O)on1C(=O)N1CCCCC1 [Compound 3] | 190 |
| Cc1c(C(C)(C)C)c(=O)on1C(=O)N1CCCCC1 [Compound 10] | 90 |
| Cc1c(-c2ccccc2)c(=O)on1C(=O)N1CCCCC1 [Compound 19] | 150 |
| Cc1c(C2CCOCC2)c(=O)on1C(=O)N1CCCCC1 [Compound 13] | 200 |
| Cc1c(Sc2ccc(Cl)cc2)c(=O)on1C(=O)N1CCCCC1 [Compound 1] | 135 |
| Cc1c(C2CCCCC2)c(=O)on1C(=O)N1CCCCC1 [Compound 12] | 27 |
| COCCc1c(C)n(C(=O)N2CCCCC2)oc1=O [Compound 16] | 180 |
| Cc1c(C2CCSCC2)c(=O)on1C(=O)N1CCCCC1 [Compound 15] | 380 |
| CCc1c(C)n(C(=O)N2CCCCC2)oc1=O [Compound 6] | 325 |
| Cc1c(CC(C)C)c(=O)on1C(=O)N1CCCCC1 [Compound 9] | 32 |
| Cc1c(C2CCCC2)c(=O)on1C(=O)N1CCCCC1 [Compound 11] | 22 |
| Cc1c(C(C)C)c(=O)on1C(=O)N1CCCCC1 [Compound 8] | 75 |
| Cc1c(Cc2ccccc2)c(=O)on1C(=O)N1CCCCC1 [Compound 4] | 90 |
| Cc1c(C)n(C(=O)N2CCCCC2)oc1=O [Compound 5] | 655 |
| Cc1c(C2CCSCC2)c(=O)on1C(=O)N1CCCCC1 [Compound 14] | 98 |

Same assay, conditions: Table 2, acyclic ureas; means of three experiments; Na = not active; cited from earlier work

| Compound | IC50 [nM] |
| --- | --- |
| Cc1c(C(C)C)c(=O)on1C(=O)N(C)Cc1ccc(F)cc1 [Compound 28] | 1000 |
| Cc1c(C(C)C)c(=O)on1C(=O)N(C)Cc1ccccc1F [Compound 26] | 10 |
| Cc1c(C(C)C)c(=O)on1C(=O)N(C)Cc1ccccc1 [Compound 25] | 67 |
| CCN(CC)C(=O)n1oc(=O)c(C(C)C)c1C [Compound 39] | 600 |
| Cc1c(C(C)C)c(=O)on1C(=O)N(C)c1ccc(Cl)cc1 [Compound 37] | > 1000 |
| Cc1c(C(C)C)c(=O)on1C(=O)N(C)CCc1ccccc1 [Compound 33] | 300 |
| Cc1c(C(C)C)c(=O)on1C(=O)N(C)Cc1ccco1 [Compound 30] | 9 |
| Cc1c(C(C)C)c(=O)on1C(=O)N(C)C1CCCCC1 [Compound 24] | > 1000 |

Same assay, conditions: Table 3, cyclic amine-derived ureas; means of three experiments; Na = not active; cited from earlier work

| Compound | IC50 [nM] |
| --- | --- |
| Cc1c(C(C)C)c(=O)on1C(=O)N1CC=CC1 [Compound 43] | 120 |
| Cc1c(C(C)C)c(=O)on1C(=O)N1CCCC1 [Compound 41] | 28 |
| Cc1c(C(C)C)c(=O)on1C(=O)N1CCOCC1 [Compound 53] | > 1000 |
| Cc1c(C(C)C)c(=O)on1C(=O)N1CCCCC1 [Compound 8] | 75 |
| Cc1c(C(C)C)c(=O)on1C(=O)N1CCN(Cc2ccccc2)CC1 [Compound 48] | 56 |
| Cc1c(C(C)C)c(=O)on1C(=O)N1CCCCCC1 [Compound 55] | 215 |
| Cc1c(C(C)C)c(=O)on1C(=O)N1CCSCC1 [Compound 54] | 290 |
| Cc1c(C(C)C)c(=O)on1C(=O)N1CCN(c2ccccc2)CC1 [Compound 49] | 27 |
| Cc1c(C(C)C)c(=O)on1C(=O)N1CCN(C)CC1 [Compound 47] | > 1000 |

Same assay, conditions: piperidine derivatives; means of three experiments; Na = not active; cited from earlier work

| Compound | IC50 [nM] |
| --- | --- |
| COCCc1c(C)n(C(=O)N2CCC(c3ccccc3)CC2)oc1=O [Compound 73] | 5 |
| COCCc1c(C)n(C(=O)N2CCC(c3cccc(F)c3)CC2)oc1=O [Compound 75] | 0.2 |
| Cc1c(C(C)C)c(=O)on1C(=O)N1CCC(C)CC1 [Compound 63] | 40 |
| Cc1c(C(C)C)c(=O)on1C(=O)N1CC(C)CCC1C (centres unmarked) [Compound 88] | > 1000 |
| Cc1c(C(C)C)c(=O)on1C(=O)N1CCC[C@@H](C)C1 [Compound 58] | 187 |
| Cc1c(C(C)C)c(=O)on1C(=O)N1CCC(c2cccc(F)c2)CC1 [Compound 74] | 4 |
| Cc1c(C(C)C)c(=O)on1C(=O)N1CCC(=O)CC1 [Compound 83] | 150 |
| CCOCCc1c(C)n(C(=O)N2CCC(C)CC2)oc1=O [Compound 67] | 20 |
| Cc1c(C2CCSCC2)c(=O)on1C(=O)N1CCC(C)CC1 [Compound 68] | 24 |
| Cc1c(C(C)C)c(=O)on1C(=O)N1CC(C)CC(C)C1 (centres unmarked) [Compound 90] | 140 |
| Cc1c(C(C)C)c(=O)on1C(=O)N1CCC(O)(c2ccccc2)CC1 [Compound 92] | > 1000 |
| Cc1c(C(C)C)c(=O)on1C(=O)N1CCCCC1 [Compound 8] | 75 |
| Cc1ccc(C2CCN(C(=O)n3oc(=O)c(C(C)C)c3C)CC2)cc1 [Compound 77] | 246 |
| CCOC(=O)C1CCCN(C(=O)n2oc(=O)c(C(C)C)c2C)C1 (centres unmarked) [Compound 62] | 170 |
| Cc1c(C2CCCCC2)c(=O)on1C(=O)N1CCC(C)CC1 [Compound 66] | 20 |
| CCCCc1c(C)n(C(=O)N2CCC(C)CC2)oc1=O [Compound 64] | 10 |
| COCCc1c(C)n(C(=O)N2CCC(c3cccc(C)c3)CC2)oc1=O [Compound 76] | 4 |
| Cc1c(C(C)C)c(=O)on1C(=O)N1CCC[C@H](C)C1 [Compound 59] | 28 |
| Cc1c(C(C)C)c(=O)on1C(=O)N1CCC(c2ccccc2)CC1 [Compound 70] | 33 |
| Cc1c(C(C)C)c(=O)on1C(=O)N1CCCC(CO)C1 (centres unmarked) [Compound 60] | 800 |
| Cc1c(C(C)C)c(=O)on1C(=O)N1CCCCC1C (centres unmarked) [Compound 57] | 400 |
| Cc1c(C2CCCC2)c(=O)on1C(=O)N1CCC(c2ccccc2)CC1 [Compound 72] | 8 |
